# Laboratory results: patent US12662676B2, “Aptamer nucleic acid molecule, and complex and application thereof” (EAST CHINA UNIVERSITY OF SCIENCE AND TECHNOLOGY, priority 2019, dated 2026)
# Assay: Pepper-based GTP sensor
# Assay type: biochemical
# Details: with III-3, presence vs absence of GTP; linkage 3
# Protocol: In order to construct Pepper-based sensors for detecting analytes, the nucleotides in the stem-loop region in the Pepper-1 (SEQ ID No: 2) structure were replaced with the aptamers that can specifically recognize and bind adenosine and guanosine (GTP), respectively. The aptamers Pepper-1 were fused by linkage with different lengths and different nucleotides (FIG. 10A). The RNA sensors were prepared according to the commonly used experimental method (1). The RNA sensors were incubated with III-3 fluorophore, and the fluorescence was measured in the presence or absence of adenosine or GTP using a multifunctional microplate reader.
substance,measurement,value
"GTP sensor: Pepper-1 with stem-loop replaced by GTP aptamer, linkage 3, SEQ ID No:22 (UCCCCAAUCGUGGCGUGUCGUAAGAAGAGCACGUAUACGCAAUAACUGGCGCCGGGA; listed as RNA, chemistry not given here)",activation fold of GTP sensor,10 folds
